Measured values from the supplement of paper PMC10307832.

How the values were obtained:
Test in all cases: relative viability (nuclei count vs DMSO), 5 days (fraction); higher = more cells survive
NCI-H2023 = test system: NCI-H2023
Summary of the method: (§1)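 A single step with final 0.05% Triton X-100, 1% formaldehyde and 1 ug/ml Hoechst fixed the cells and stained nuclei 5 days after treatment. Lung cancer cell lines in 1536-well plates had been treated by pin tool the day after seeding with one drug alone or a fixed anchor-drug dose plus five library-drug doses (not always all listed) in √10 steps, and nuclei were counted on 4× images. Relative viability is the ratio of nuclei in treated wells to nuclei in vehicle wells, taken as the median of duplicate plates.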

NCI-H2405 = test system: NCI-H2405
Summary of the method: as §1

NCI-H1792 = test system: NCI-H1792
Summary of the method: as §1

HARA = test system: HARA
Summary of the method: as §1

SK-LU-1 = test system: SK-LU-1
Summary of the method: as §1

NCI-H2085 = test system: NCI-H2085
Summary of the method: as §1

NCI-H727 = test system: NCI-H727
Summary of the method: as §1

NCI-H1437 = test system: NCI-H1437
Summary of the method: as §1

NCI-H661 = test system: NCI-H661
Summary of the method: as §1

COR-L23 = test system: COR-L23
Summary of the method: as §1

COR-L 105 = test system: COR-L 105
Summary of the method: as §1

UMC-11 = test system: UMC-11
Summary of the method: as §1

NCI-H1944 = test system: NCI-H1944
Summary of the method: as §1

NCI-H358 = test system: NCI-H358
Summary of the method: as §1

LCLC-103H = test system: LCLC-103H
Summary of the method: as §1

EPLC-272H = test system: EPLC-272H
Summary of the method: as §1

HCC-366 = test system: HCC-366
Summary of the method: as §1

HCC-15 = test system: HCC-15
Summary of the method: as §1

NCI-H1975 = test system: NCI-H1975
Summary of the method: as §1

HCC-78 = test system: HCC-78
Summary of the method: as §1

HCC-44 = test system: HCC-44
Summary of the method: as §1

HCC-827 = test system: HCC-827
Summary of the method: as §1

**Q.** Which results are given for `O=C(O)CCCCC(CCSCc1ccccc1)SCc1ccccc1` (stereo not drawn) [CPI-613] + C[C@@H](Oc1cc(-c2cnn(C3CCNCC3)c2)cnc1N)c1c(Cl)ccc(F)c1Cl [Crizotinib] (partner 1 µM)?
**A.** relative viability (NCI-H2023; first compound 5 µM): 0.583; relative viability (NCI-H2023; first compound 15.81 µM): 0.605; relative viability (NCI-H2023; first compound 50 µM): 0.598; relative viability (NCI-H2023; first compound 158.11 µM): 0.388; relative viability (NCI-H2023; first compound 500 µM): 0.0057; relative viability (NCI-H2405; first compound 5 µM): 0.855; relative viability (NCI-H2405; first compound 15.81 µM): 0.842; relative viability (NCI-H2405; first compound 50 µM): 0.825; relative viability (NCI-H2405; first compound 158.11 µM): 0.828; relative viability (NCI-H2405; first compound 500 µM): 0.829; relative viability (NCI-H1792; first compound 5 µM): 0.937; relative viability (NCI-H1792; first compound 15.81 µM): 0.909; relative viability (NCI-H1792; first compound 50 µM): 0.914; relative viability (NCI-H1792; first compound 158.11 µM): 0.91; relative viability (NCI-H1792; first compound 500 µM): 0.753; relative viability (HARA; first compound 5 µM): 1.04; relative viability (HARA; first compound 15.81 µM): 1.09; relative viability (HARA; first compound 50 µM): 1.02; relative viability (HARA; first compound 158.11 µM): 0.397; relative viability (HARA; first compound 500 µM): 0.247; relative viability (SK-LU-1; first compound 5 µM): 1.03; relative viability (SK-LU-1; first compound 15.81 µM): 0.902; relative viability (SK-LU-1; first compound 50 µM): 0.644; relative viability (SK-LU-1; first compound 158.11 µM): 0.167; relative viability (SK-LU-1; first compound 500 µM): 0.104; relative viability (NCI-H2085; first compound 5 µM): 0.786; relative viability (NCI-H2085; first compound 15.81 µM): 0.886; relative viability (NCI-H2085; first compound 50 µM): 0.839; relative viability (NCI-H2085; first compound 158.11 µM): 0.415; relative viability (NCI-H2085; first compound 500 µM): 0.231; relative viability (NCI-H727; first compound 5 µM): 0.875; relative viability (NCI-H727; first compound 15.81 µM): 0.743; relative viability (NCI-H727; first compound 50 µM): 0.797; relative viability (NCI-H727; first compound 158.11 µM): 0.244; relative viability (NCI-H727; first compound 500 µM): 0.0831; relative viability (NCI-H1437; first compound 5 µM): 0.96; relative viability (NCI-H1437; first compound 15.81 µM): 0.794; relative viability (NCI-H1437; first compound 50 µM): 0.857; relative viability (NCI-H1437; first compound 158.11 µM): 0.229; relative viability (NCI-H1437; first compound 500 µM): 0.0274; relative viability (NCI-H661; first compound 15.81 µM): 1.03; relative viability (NCI-H661; first compound 50 µM): 0.997; relative viability (NCI-H661; first compound 158.11 µM): 1.15; relative viability (NCI-H661; first compound 500 µM): 0.817; relative viability (COR-L23; first compound 5 µM): 0.635; relative viability (COR-L23; first compound 15.81 µM): 0.598; relative viability (COR-L23; first compound 50 µM): 0.647; relative viability (COR-L23; first compound 158.11 µM): 0.226; relative viability (COR-L23; first compound 500 µM): 0.0141; relative viability (COR-L 105; first compound 5 µM): 0.727; relative viability (COR-L 105; first compound 15.81 µM): 0.772; relative viability (COR-L 105; first compound 50 µM): 0.753; relative viability (COR-L 105; first compound 158.11 µM): 0.242; relative viability (COR-L 105; first compound 500 µM): 0.169; relative viability (UMC-11; first compound 5 µM): 0.578; relative viability (UMC-11; first compound 15.81 µM): 0.668; relative viability (UMC-11; first compound 50 µM): 0.696; relative viability (UMC-11; first compound 158.11 µM): 0.298; relative viability (UMC-11; first compound 500 µM): 0.0636; relative viability (NCI-H1944; first compound 5 µM): 1.22; relative viability (NCI-H1944; first compound 15.81 µM): 1.02; relative viability (NCI-H1944; first compound 50 µM): 1.07; relative viability (NCI-H1944; first compound 158.11 µM): 1.06; relative viability (NCI-H1944; first compound 500 µM): 0.891; relative viability (NCI-H358; first compound 5 µM): 0.659; relative viability (NCI-H358; first compound 15.81 µM): 0.606; relative viability (NCI-H358; first compound 50 µM): 0.501; relative viability (NCI-H358; first compound 158.11 µM): 0.104; relative viability (NCI-H358; first compound 500 µM): 0.0191; relative viability (LCLC-103H; first compound 5 µM): 1.11; relative viability (LCLC-103H; first compound 15.81 µM): 1.1; relative viability (LCLC-103H; first compound 50 µM): 0.917; relative viability (LCLC-103H; first compound 158.11 µM): 0.855; relative viability (LCLC-103H; first compound 500 µM): 0.861; relative viability (EPLC-272H; first compound 5 µM): 0.9; relative viability (EPLC-272H; first compound 15.81 µM): 0.925; relative viability (EPLC-272H; first compound 50 µM): 1.03; relative viability (EPLC-272H; first compound 158.11 µM): 0.855; relative viability (EPLC-272H; first compound 500 µM): 1.07; relative viability (HCC-366; first compound 5 µM): 0.533; relative viability (HCC-366; first compound 15.81 µM): 0.483; relative viability (HCC-366; first compound 50 µM): 0.381; relative viability (HCC-366; first compound 158.11 µM): 0.331; relative viability (HCC-366; first compound 500 µM): 0.0154; relative viability (HCC-15; first compound 5 µM): 0.772; relative viability (HCC-15; first compound 15.81 µM): 0.746; relative viability (HCC-15; first compound 50 µM): 0.776; relative viability (HCC-15; first compound 158.11 µM): 0.367; relative viability (HCC-15; first compound 500 µM): 0.326; relative viability (NCI-H1975; first compound 5 µM): 0.931; relative viability (NCI-H1975; first compound 15.81 µM): 0.982; relative viability (NCI-H1975; first compound 50 µM): 0.945; relative viability (NCI-H1975; first compound 158.11 µM): 0.499; relative viability (NCI-H1975; first compound 500 µM): 0.0749; relative viability (HCC-78; first compound 5 µM): 0.346; relative viability (HCC-78; first compound 15.81 µM): 0.318; relative viability (HCC-78; first compound 158.11 µM): 0.348; relative viability (HCC-78; first compound 500 µM): 0.331; relative viability (HCC-44; first compound 5 µM): 0.834; relative viability (HCC-44; first compound 15.81 µM): 0.791; relative viability (HCC-44; first compound 50 µM): 0.785; relative viability (HCC-44; first compound 158.11 µM): 0.295; relative viability (HCC-44; first compound 500 µM): 0.0369; relative viability (HCC-827; first compound 5 µM): 0.878; relative viability (HCC-827; first compound 15.81 µM): 0.906; relative viability (HCC-827; first compound 50 µM): 0.843; relative viability (HCC-827; first compound 158.11 µM): 0.412; relative viability (HCC-827; first compound 500 µM): 0.225
